The structures appear in SMILES notation. Values joined by “and” are separate entries in the source; they are usually repeats but may differ in a detail not shown here. Identical values can stand only once. Like-named read-outs stand apart in the source and are kept apart here.

The text below walks through data of patent US20090123389A1, “Methods for modulating Th17 cell development in the treatment and prevention of cellulite” (priority 2007, published 2009).

Data set [1] concerns CD4+ CD25− T cells. Kind of data set: Th17 differentiation / IL-17 expression of activated CD4+ CD25− T cells (TGFβ plus IL-6). In kind it is cell-based, mouse. The following applies: for IC50: Mus musculus, T-cell. How it is done: Low doses of halofuginone (HF) were tested to determine the ability of HF to enhance Treg differentiation, while suppressing Th17 differentiation. Naïve CD4+ T cells (CD4+ CD25−) were isolated from the spleen and peripheral lymph nodes of C57B/6 mice. T cells were then activated using anti-CD3 (0.3 μg/ml) and anti-CD28 (0.5 μg/ml) antibodies either in media alone (row 1, 4), TGFβ alone (3 ng/ml—row 2, 5) or TGFβ (3 ng/ml) plus IL-6 (30 ng/ml) (row 3, 6). […] T cells were cultured for 3 days and CD25 and Foxp3 expression (Treg marker genes) was determine by FACS staining and flow cytometric analyses. Simultaneously, T cells were harvested and re-stimulated for 4 hours using phorbol myristic acetate (PMA; 10 nM), Ionomycin (1 μM) and cytokine secretion was prevented using brefeldin A (20 μg/ml). Following stimulation, the production of IL-17 and IFNγ were determined by intracellular staining and analyzed via flow cytometry.
The dose-response of HF on CD4+ T cell proliferation, activation (i.e. CD25 upregulation) and differentiation to Th1, Th2 and Th17 lineages were evaluated. Purified murine naïve CD4+ CD25− T cells were activated using anti-CD3 (0.3 μg/ml) and anti-CD28 (0.5 μg/ml) antibodies and varying amounts of HF was added to each T cell culture condition (1.25 nM-40 nM). CD4+ T cell proliferation was monitored by CFSE dilution on day 3-post activation and CD25 expression was evaluated by FACS staining 2 days after activation. For T cell differentiation experiments, naïve T cells were activated as above in the presence of Th1 (IL-12 (20 ng/ml) plus anti-IL-4 (1.5 μg/ml)), Th2 (IL-4 (50 ng/ml) plus anti-IFNγ (0.5 mg/ml)) or Th17 (TGFβ (3 ng/ml) plus IL-6 (30 ng/ml)) polarizing conditions plus titrating amounts of HF (1.25 nM-40 nM) or MAZ1310 (40 nM). […] All cytokine expression was determined by intracellular staining following PMA+Ionomycin+Brefeldin A re-stimulation and all data was normalized to control (MAZ1310)-treated cells. […] Biol., vol. 80:1-8 (2006).
Cytokines, antibodies and T cell culture: Purified CD4^+ CD25^− T cells were activated in vitro as previously described (I. M. Djuretic et al., Nat Immunol 8, 145 (2007)) using 0.3 μg/ml hamster anti-mouse CD3 (clone 145-2C11) (ATCC—Manassas, Va.) and 0.5 μg/ml hamster anti-mouse CD28 (BD Pharmingen, San Jose, Calif.). Activated cell cultures were differentiated using the following combinations of cytokines and antibodies: iTreg=recombinant human TGFβ1 (3 ng/ml; R&D systems, Minneapolis, Minn.), Th17=TGFβ1 (3 ng/ml) plus recombinant mouse IL-6 (30 ng/ml, R&D systems). Th1 and Th2 differentiation was performed as previously described. (I. M. Djuretic et al., Nat Immunol 8, 145 (2007)). Human IL-2 supernatant (National Cancer Institute) was used in culture at 0.01 U/ml and was added at 48 hours-post activation when T cells were split into tissue culture wells lacking CD3 and CD28 antibodies, with the exception of Th17 cultures that were maintained in the absence of IL-2. All reagents were added at the time of T cell activation and again at 48-hours post activation unless indicated otherwise. For some experiments, purified CD4^+ CD25^− T cells, CD8^+ T cells or B cells were labeled with 1 μM CFSE (Invitrogen) prior to activation in accordance with manufacturers instructions.
MAZ1310 was generated by chemical derivatization of halofuginone and was used at equal concentrations as a negative control.

For data set [2], the system named is fibrosis. The following applies: in vitro; cited from earlier work.
Data set [3] concerns TSK mouse. The following applies: 1 μg HF/mouse IP daily; cited from earlier work.
For data set [4] the following is noted: human, in vivo; cited from earlier work.

Consider `O=C(CC1NCCCC1O)Cn1cnc2cc(Br)c(Cl)cc2c1=O` (racemic) [HF, 7-bromo-6-chloro-3-[3-(3-hydroxy-2-piperidinyl)-2-oxopropyl]-4(3H)-quinazolinone], for which the “IL-17 expression in cultures where IFNγ and IL-4 were blocked by neutralizing antibodies” value in data set [1] is “reduced IL-17 expression”. In addition, the “window of HF addition at start of culture giving most pronounced inhibition of IL-17 expression” value in data set [1] (10 nM HF added at different times after activation) was determined as 12 h. In data set [1] (10 nM HF, TGFβ plus IL-6), the “IL-17 expression in T cells lacking Foxp3” value is “strongly repressed” and the “Th17 differentiation of T cells expressing STAT3C” value is on record as “remained capable of differentiating into Th17 cells”. Further, the “Il17 and Il17f mRNA expression” value in data set [1] (10 nM HF, Th17 conditions, 4 days) is reported as “impaired expression”. For the same molecule, the IC50 in data set [1] (96 h, percentage of IL-17+ IFNγ− cells after restimulation on day 4-5, read-out: IC50 of repression of Th17 differentiation) was determined as 3.6 nM. The IC50 in data set [1] (in vitro, read-out: 50% inhibition of Th17 cell development) was 2 to 3 nM. In data set [1] (TAT-Cre treated T cells, TGFβ plus IL-6), the “Th17 differentiation of cells expressing YFP or no transgene” value is “strongly impaired”. In addition, the “HF concentration that inhibited expression of IL-17” value in data set [1] (TGFβ/IL-6 treated T-cells) is 2.5 to 10 nM and 2.2 to 10 nM. The IL-17 production entry in data set [1] (low concentrations of HF (1-10 nM)) was “strongly reduced”. For the same molecule, the “fold lower doses for effects on Th17 differentiation than for general inhibition of T-cell proliferation and differentiation” value in data set [1] (versus proliferation and Th1 or Th2 differentiation) was 5- to 10 fold and ~10 fold. Besides, the “concentrations at which HF acts as an inhibitor of fibrosis” value in data set [2] is 1 to 200 nM. Also, in data set [3], the normal skin thickness entry is listed as “did not reduce”, the “skin thickness of TSK mouse” value is listed as “reduced skin thickness of a TSK mouse to that of a normal mouse” and the “toxic effects in TSK model” value is listed as “no toxic effects”. The “HF in serum during topical treatment” value in data set [4] is on record as “undetectable in serum”.
